Measurements reported in patent publication USRE47475E1, “Selective agents for pain suppression” (WiSys Technology Foundation, Inc., priority 2002, dated 2019).
pKi: −log10 of the molar value.

Tests used:
[1] = system: rhesus monkeys; assay: conflict model of anxiolytic activity which also measures sedation; format: in vivo; conditions: for sedative activity (conflict model): intravenously; for anxiolytic effect (conflict model): intravenously in propylene glycol/water
Description: The data in FIGS. 21A-21F reflect the ability of the compounds or drugs to exert an anxioyic effect in rhesus monkeys (J. Rowlett, J. M. Cook et al., unpublished results) when given intravenously in propylene glycol/water solution. This is the conflict model of anxiolytic activity which also measures sedation. […] In FIG. 21B, SH-053-2′F (JY-XHE-053) is anxiolytic at a dose of greater than 0.13 mg/kg, but exerts only some slight sedation at doses greater than 1.2 mg/kg (responses decrease). In FIG. 21C it is clear the S-enantiomer of SH-053-2′F—S—CH3 is anxiolytic with no sedation up to 10-18 mg/kg, which is the highest dose tested.

[2] = system: neuropathic pain after CCI of the sciatic nerve; assay: chronic constriction injury (CCI) model, mechanical sensitization (von Frey filaments); format: in vivo, mice
Description: In addition, the pro- or antinociceptive effects of the compounds of the present invention are analyzed in the chronic constriction injury (CCI) model. The GABAA receptor subunit selective test compounds of the present invention are analysed in the CCI model in 7-8-week-old C57BL/6 mice. See Bennett, G. J. & Xie, Y. K. A peripheral mononeuropathy in rat that produces disorders of pain sensation like those seen in man. […] Seven to eight week old mice are anesthetized with isofluran. Unilateral constriction injury of the left sciatic nerve just proximal to the trifurcation is performed with three loose ligatures. In sham-operated animals the sciatic nerve is exposed and the connective tissue is freed, but no ligatures are applied. […] Heat hyperalgesia, cold allodynia and mechanical sensitization are assessed 7-9 days after surgery. Mechanical sensitivity is assessed with electronic von Frey filaments (IITC).
Pain studies—Neuropathic pain: HZ166 and gabapentin were analyzed in the chronic constriction injury (CCI) model. Unilateral constriction injury of the left sciatic nerve just proximal to the trifurcation was performed as described previously (Bennett and Xie, 1988). Anesthesia was induced and maintained by 2% isoflurane, combined with oxygen (30%). The sciatic nerve was exposed at the mid-thigh level proximal to the sciatic trifurcation by blunt dissection through the biceps femoris muscle. […] of nerve were freed of adhering tissue and three chromic gut ligatures (4/0) (Ethicon) were loosely put around the nerve with about 1 mm spacing. The ligatures were tied until they elicited a brief twitch in the hindlimb. The surgical wound was closed in layers. Heat hyperalgesia and mechanical sensitization were assessed 7-16 days after surgery.
Pain Studies—Mechanical sensitization: Mechanical sensitivity was assessed with dynamic von Frey filaments (IITC, Woodland Hills, Calif.). 4-5 measurements were made for each time point and animal and averaged. Measurements of paw withdrawal thresholds of the injured paw and of the contralateral paw were made alternately.
Statistical Analysis: For all different doses and vehicle, baseline paw withdrawal thresholds/latencies on day 7 after nerve ligation or on day 2 after zymosan A injection were subtracted from all later withdrawal thresholds and the area under the curve (AUC) was calculated. Drug effects were expressed as percent maximum possible effect (MPE) calculated from comparisons of paw withdrawal latencies or thresholds obtained prior to surgery or inflammation and before and after drug treatment. […] Unless otherwise indicated, statistical comparisons were made with one-way analysis of variance (ANOVA) followed by Scheffe's post hoc test. P values<0.05 were considered significant.

[3] = molecular target: T1, GABAA/α5 (α5β3γ2 GABAA receptor) (Homo sapiens, UniProt P18507+P31644); assay: competitive binding assay with [3H]flunitrazepam
T1 construct: expressed in transfected cells
Description: (§1) Membranes were harvested with a Brandel cell harvester followed by three ice-cold washes onto polyethyleneimine-pretreated (0.3%) Whatman GF/C filters. Filters were dried overnight and then soaked in Ecoscint, a liquid scintillation cocktail (National Diagnostics; Atlanta, Ga.). Bound radioactivity was quantified by liquid scintillation counting. Membrane protein concentrations were determined using an assay kit from Bio-Rad (Hercules, Calif.) with bovine serum albumin as the standard.
as §1, with “The GABAA subunit selectivity of several compounds prepared as described above were determined using competitive binding assays. […] Membranes” for “Membranes”

[4] = molecular target: T2, GABAA/α1 (α1β3γ2 GABAA receptor) (Homo sapiens, UniProt P14867+P18507); assay: competitive binding assay with [3H]flunitrazepam; conditions: Binding Affinity at GABAA/α1, Table 4, stereoisomers
T2 construct: expressed in transfected cells
Description: as §1
as §1, with “The GABAA subunit selectivity of several compounds prepared as described above were determined using competitive binding assays. […] Membranes” for “Membranes”

[5] = molecular target: T3, GABAA/α2 (α2β3γ2 GABAA receptor) (Homo sapiens, UniProt P18507+P47869); assay: competitive binding assay with [3H]flunitrazepam; conditions: Binding Affinity at GABAA/α2, Table 4, stereoisomers
T3 construct: expressed in transfected cells
Description: as §1
as §1, with “The GABAA subunit selectivity of several compounds prepared as described above were determined using competitive binding assays. […] Membranes” for “Membranes”

[6] = molecular target: T4, GABAA/α3 (α3β3γ2 GABAA receptor) (Homo sapiens, UniProt P18507+P34903); assay: competitive binding assay with [3H]flunitrazepam; conditions: Binding Affinity at GABAA/α3, Table 4, stereoisomers
T4 construct: expressed in transfected cells
Description: as §1
as §1, with “The GABAA subunit selectivity of several compounds prepared as described above were determined using competitive binding assays. […] Membranes” for “Membranes”

Compound: CCOC(=O)c1ncn2c1CN=C(c1ccccc1)c1cc(Cl)ccc1-2
- melting point: 174 to 175 °C

Compound: CNC1=Nc2ccc(C#C[Si](C)(C)C)cc2C(c2ccccc2)=NC1
- melting point: 210 to 211 °C

Compound: C[Si](C)(C)C#Cc1ccc2c(c1)C(c1ccccn1)=NCC(=O)N2
- melting point: 242 to 243 °C

Compound: CN1C(=O)CN=C(c2ccccn2)c2cc(C#C[Si](C)(C)C)ccc21
- melting point: 194 to 195 °C

Compound: C#Cc1ccc2c(c1)C(c1ccccn1)=NCC(=O)N2C
- melting point: 190 to 191 °C

Compound: CCOC(=O)c1ncn2c1CN=C(c1ccccn1)c1cc(C#C[Si](C)(C)C)ccc1-2
- melting point: 205 to 206 °C

Compound: O=C(OCC(Cl)(Cl)Cl)c1ncn2c1CN=C(c1ccccc1)c1cc(Br)ccc1-2
- melting point: 113 to 116 °C

Compound: C[Si](C)(C)C#Cc1ccc2c(c1)C(c1ccccc1)=NCc1c(C(=O)OCC(F)(F)F)ncn1-2
- melting point: 107 to 110 °C

Compound: C#Cc1ccc2c(c1)C(c1ccccc1F)=NC(C)c1c(C(=O)OCC)ncn1-2 (single isomer, unassigned) [SH-053-2′F-R-CH3, 8-Ethynyl-6-(2-fluorophenyl)-4-methyl-4H-2,5,10b-triaza-benzo[e]azulene-3-carboxylic acid ethyl ester]
- sedative activity (conflict model) [1]: not sedating
- anxiolytic effect (conflict model) [1]: only a weak anxiolytic

Compound: C#Cc1ccc2c(c1)C(c1ccccc1F)=NC(C)c1c(C(=O)OCC)ncn1-2 (single isomer, unassigned) [SH-053-2′F-S-CH3, 8-Ethynyl-6-(2-fluorophenyl)-4-methyl-4H-2,5,10b-triazabenzo[e]azulene-3-carboxylic acid ethyl ester]
- no sedation up to dose ([1]; conflict model): 10 to 18 mg/kg
- anxiolytic effect (conflict model) [1]: anxiolytic

Compound: C#Cc1ccc2c(c1)C(c1ccccc1)=NCc1c(C(=O)OCC(F)(F)F)ncn1-2 [DM-II-20, Trifluoroethyl 8-acetylenyl-6-phenyl-4H-benzo[f]imidazo[1,5-a][1,4]diaze-pine-3-carboxylate]
- melting point: 188 to 190 °C

Compound: CCOC(=O)c1ncn2c1CN(C)C(=O)c1cc(F)ccc1-2 [Flumazenil, flumazenil, reference compound]
- AUC of mechanical PWT, HZ166 followed by flumazenil ([2]; HZ166 16 mg/kg i.p., flumazenil 10 mg/kg i.p. 45 min later, n=6): 0.54 ± 0.25 g·h
- effect on the antihyperalgesic effect of HZ166 ([2]; flumazenil 10 mg/kg i.p., HZ166 16 mg/kg): almost completely reversed

Compound: C#Cc1ccc2c(c1)C(c1cccs1)=NCc1c(C(=O)OCC)ncn1-2 [JC-221, Ethyl 8-acetyleno-6-(2′-thienyl)-4H-benzo[f]imidazo[1,5-a][1,4]diazepine-3-carboxylate]
- pKi ([3]; Binding Affinity at GABAA/α5, Table 3): 7.84

Compound: C#Cc1ccc2c(c1)C(c1ccccn1)=NC(C)c1c(C(=O)OCC)ncn1-2 (stereo not drawn) [SH-053-2′N-S-CH3, 8-Ethynyl-4-methyl-6-pyridin-2-yl-4H-2,5,10b-triaza-benzo[e]azulene-3-carboxylic acid ethyl ester]
- pKi [4]: 5.16
- pKi [5]: 5.63
- pKi [6]: 5.58
- pKi ([3]; Binding Affinity at GABAA/α5, Table 4, stereoisomers): 6.13

Compound: C#Cc1ccc2c(c1)C(c1ccccc1)=NCc1c(C(=O)OCC)ncn1-2 [XHE-II-053, Ethyl 8-acetylenyl-6-phenyl-4H-benzo[f]imidazo[1,5-a][1,4]diazepine-3-carboxylate]
- analgesic effect, mechanical sensitivity (von Frey) in CCI model ([2]; 10 mg/kg i.p.): significantly analgesic
- analgesic effects in the chronic constriction injury model of neuropathic pain ([2]; mouse, in vivo): analgesic effects
- sedative activity (conflict model) [1]: no sedative activity
- anxiolytic effect (conflict model) [1]: anxiolytic
